In US20090192153A1, “NOVEL ADENINE COMPOUND” (priority 2005, published 2009):

Target: T1, human TLR7 (Homo sapiens, UniProt Q9NYK1)
T1 construct: expressed in transfected cells; host or cells: HEK293 (hTLR7/seap-293), stably transfected
T1 sequence (Q9NYK1 27-1049): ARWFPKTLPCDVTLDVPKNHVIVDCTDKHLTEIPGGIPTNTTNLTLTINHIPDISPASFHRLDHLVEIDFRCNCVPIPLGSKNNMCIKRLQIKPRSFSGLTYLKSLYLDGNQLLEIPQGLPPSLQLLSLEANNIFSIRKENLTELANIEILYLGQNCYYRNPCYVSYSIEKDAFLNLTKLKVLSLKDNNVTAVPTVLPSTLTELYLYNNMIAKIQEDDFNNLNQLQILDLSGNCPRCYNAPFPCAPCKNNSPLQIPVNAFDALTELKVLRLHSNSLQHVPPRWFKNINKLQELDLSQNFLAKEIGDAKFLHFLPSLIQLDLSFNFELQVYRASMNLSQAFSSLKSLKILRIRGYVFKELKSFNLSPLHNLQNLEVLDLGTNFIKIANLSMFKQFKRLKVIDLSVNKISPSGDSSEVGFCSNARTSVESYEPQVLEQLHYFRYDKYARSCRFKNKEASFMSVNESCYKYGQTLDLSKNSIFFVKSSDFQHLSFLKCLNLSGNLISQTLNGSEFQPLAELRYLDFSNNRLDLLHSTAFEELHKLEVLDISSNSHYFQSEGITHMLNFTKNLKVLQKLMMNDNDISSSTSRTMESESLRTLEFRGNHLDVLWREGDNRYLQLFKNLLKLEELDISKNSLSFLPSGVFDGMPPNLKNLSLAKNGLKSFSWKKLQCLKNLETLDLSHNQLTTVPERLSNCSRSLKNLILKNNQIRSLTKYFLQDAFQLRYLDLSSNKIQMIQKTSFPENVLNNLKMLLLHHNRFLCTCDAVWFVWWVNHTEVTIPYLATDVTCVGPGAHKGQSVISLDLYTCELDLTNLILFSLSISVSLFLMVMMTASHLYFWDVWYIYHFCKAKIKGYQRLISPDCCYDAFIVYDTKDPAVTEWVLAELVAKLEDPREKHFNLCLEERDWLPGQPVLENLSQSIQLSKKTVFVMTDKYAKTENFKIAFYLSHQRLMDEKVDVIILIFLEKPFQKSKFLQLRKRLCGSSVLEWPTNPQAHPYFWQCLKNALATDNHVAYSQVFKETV
Test: Human TLR7 reporter assay (NF-kB-SEAP in HEK293 cells)
Type: cell-based
Settings: HEK293 cells stably carrying human TLR7 plasmid and NF-kB-SEAP reporter plasmid; 20 hours culture; final concentration 1 nM-10 μM; absorbance 405 nm; read-out: Human TLR7 binding activity (EC50)
Experimental: Human TLR7 Reporter Assay
HEK293 cells in which human TLR7 or rat TLR7 plasmid and reporter plasmid (NF-kB-SEAP) are stably introduced are dispersed in DMEM broth (10% FBS, 1% NEAA, 10 ug/mL blastocidin S HCl, 100 ug/mL Zeocin), and were seeded to 96 well plate per 90 μl/well (hTLR7/seap-293:20000 cells/well, rTLR7/seap-293:25000 cells/well).
Test compound (DMSO stock solution (2 μl) was diluted with the broth (200 μl) by 100 times) was added to the seeded cells to a 96 well plate (10 μl/well) (final concentration; 1 nM-10 μM, common ratio 3). After stirring by tapping side of the plate, the cells were cultured in a CO2 incubator for 20 hours. A substrate (50 μl/well) for reporter assay (substrate for SEAP, pNPP) was added to cells stimulated by test sample. Ten minutes after adding the substrate, the reaction quenching solution (4N NaOH) was added by 50 μl/well to cease enzymatic reaction. Sealing a top seal A on the plate, the absorbance was measured by a micro plate reader (405 nm).

Row | SMILES | EC50 [nM]
1 | CCCCOc1nc(N)c2[nH]c(=O)n(CCCCCN3CCC(C(=O)OC)CC3)c2n1 [Example 1, 2-Butoxy-7,8-dihydro-9-[5-(4-methoxycarbonylpiperidin-1-yl)pentyl]-8-oxoadenine] | 145
2 | CCCCOc1nc(N)c2[nH]c(=O)n(CCCCCN3CCCC(CC(=O)OC)C3)c2n1 (stereo not drawn) [Example 3, 2-Butoxy-7,8-dihydro-9-[5-(3-methoxycarbonylmethylpiperidin-1-yl)pentyl]-8-oxoadenine] | 571
3 | CCCCOc1nc(N)c2[nH]c(=O)n(CCN3CCCC(C(=O)OC)C3)c2n1 (stereo not drawn) [Example 5, 2-Butoxy-7,8-dihydro-9-[2-(3-methoxycarbonylpiperidin-1-yl)ethyl]-8-oxoadenine] | 807
4 | CCCCOc1nc(N)c2[nH]c(=O)n(CCN3CCN(CCC(=O)OC)CC3)c2n1 [Example 7, 2-Butoxy-7,8-dihydro-9-[2-{4-(2-methoxycarbonylethyl)piperazin-1-yl}ethyl]-8-oxoadenine] | 4790
5 | CCCCOc1nc(N)c2[nH]c(=O)n(CCCN3CCC(C(=O)OC)CC3)c2n1 [Example 8, 2-Butoxy-7,8-dihydro-9-[3-(4-methoxycarbonylpiperidin-1-yl)propyl]-8-oxoadenine] | 1230
6 | CCCCOc1nc(N)c2[nH]c(=O)n(CCCN3CCCC(C(=O)OC)C3)c2n1 (stereo not drawn) [Example 9, 2-Butoxy-7,8-dihydro-9-[3-(3-methoxycarbonylpiperidin-1-yl)propyl]-8-oxoadenine] | 989
7 | CCCCOc1nc(N)c2[nH]c(=O)n(CCCN3CCC(CC(=O)OC)CC3)c2n1 [Example 11, 2-Butoxy-7,8-dihydro-9-{3-[4-(2-methoxy-2-oxoethyl)piperidin-1-yl]propyl}-8-oxoadenine] | 3240
8 | CCCCOc1nc(N)c2[nH]c(=O)n(CCCN3CCCC(CC(=O)OC)C3)c2n1 (stereo not drawn) [Example 12, 2-Butoxy-7,8-dihydro-9-{3-[3-(2-methoxy-2-oxoethyl)piperidin-1-yl]propyl}-8-oxoadenine] | 1610
9 | CCCCOc1nc(N)c2[nH]c(=O)n(CCCCCCN3CCC(C(=O)OC)CC3)c2n1 [Example 15, 2-Butoxy-7,8-dihydro-9-[6-(4-methoxycarbonylpiperidin-1-yl)hexyl]-8-oxoadenine] | 95.2
10 | CCCCOc1nc(N)c2[nH]c(=O)n(CCCCCCCN3CCC(C(=O)OC)CC3)c2n1 [Example 16] | 145
11 | CCCCOc1nc(N)c2[nH]c(=O)n(CCCCCCCCN3CCC(C(=O)OC)CC3)c2n1 [Example 17, 2-Butoxy-7,8-dihydro-9-[8-(4-methoxycarbonylpiperidin-1-yl)octyl]-8-oxoadenine] | 148
12 | CCCCOc1nc(N)c2[nH]c(=O)n(CCCCN3CCCC(C(=O)OC)C3)c2n1 (stereo not drawn) [Example 19, 2-Butoxy-7,8-dihydro-9-[4-(3-methoxycarbonylpiperidin-1-yl)butyl]-8-oxoadenine] | 631
